Measurements reported in article PMC3070735, “Uremic Toxins Inhibit Transport by Breast Cancer Resistance Protein and Multidrug Resistance Protein 4 at Clinically Relevant Concentrations” (PLoS ONE, 2011).
Counter-ions that a name gives are not always drawn. Like-named read-outs stand apart in the source and are kept apart here.

Target: T1, MRP4 (Homo sapiens, UniProt O15439)
T1 sequence (O15439 1-1325): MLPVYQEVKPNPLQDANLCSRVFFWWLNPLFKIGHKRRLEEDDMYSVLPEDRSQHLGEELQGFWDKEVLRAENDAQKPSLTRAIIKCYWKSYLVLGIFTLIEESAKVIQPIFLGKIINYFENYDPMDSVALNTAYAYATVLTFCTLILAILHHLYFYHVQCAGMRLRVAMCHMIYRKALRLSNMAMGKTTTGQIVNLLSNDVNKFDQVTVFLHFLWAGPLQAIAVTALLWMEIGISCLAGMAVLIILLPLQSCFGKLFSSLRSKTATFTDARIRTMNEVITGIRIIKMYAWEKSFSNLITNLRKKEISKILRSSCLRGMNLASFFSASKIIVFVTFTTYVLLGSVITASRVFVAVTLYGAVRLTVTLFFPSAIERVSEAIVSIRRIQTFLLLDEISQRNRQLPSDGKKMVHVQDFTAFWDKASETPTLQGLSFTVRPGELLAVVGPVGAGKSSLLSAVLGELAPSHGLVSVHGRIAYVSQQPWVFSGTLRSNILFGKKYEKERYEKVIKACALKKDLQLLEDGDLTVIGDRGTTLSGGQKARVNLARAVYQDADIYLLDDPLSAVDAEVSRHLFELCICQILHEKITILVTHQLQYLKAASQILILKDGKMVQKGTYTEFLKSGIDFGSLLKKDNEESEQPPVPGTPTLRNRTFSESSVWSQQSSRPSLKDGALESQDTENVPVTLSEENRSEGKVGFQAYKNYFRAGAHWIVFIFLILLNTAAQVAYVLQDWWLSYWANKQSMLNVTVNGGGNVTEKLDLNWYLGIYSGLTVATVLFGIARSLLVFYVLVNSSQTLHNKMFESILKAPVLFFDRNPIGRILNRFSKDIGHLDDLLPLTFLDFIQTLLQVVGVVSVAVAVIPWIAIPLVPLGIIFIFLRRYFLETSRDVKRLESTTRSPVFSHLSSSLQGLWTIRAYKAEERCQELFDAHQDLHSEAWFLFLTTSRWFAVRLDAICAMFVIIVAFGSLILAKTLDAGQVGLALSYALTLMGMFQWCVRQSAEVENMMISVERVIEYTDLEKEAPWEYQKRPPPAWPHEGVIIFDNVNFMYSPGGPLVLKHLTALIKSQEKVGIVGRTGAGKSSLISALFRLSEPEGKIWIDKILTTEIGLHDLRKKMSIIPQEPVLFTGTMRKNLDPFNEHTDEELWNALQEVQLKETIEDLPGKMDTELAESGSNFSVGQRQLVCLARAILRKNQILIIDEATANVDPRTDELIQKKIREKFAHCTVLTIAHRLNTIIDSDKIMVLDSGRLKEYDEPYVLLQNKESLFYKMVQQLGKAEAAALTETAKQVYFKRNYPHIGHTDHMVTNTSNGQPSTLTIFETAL
Assay: Membrane vesicle transport inhibition assay: MRP4-mediated [3H]-MTX uptake
Conditions: for Mode of inhibition of MRP4-mediated transport: Dixon plot, three [3H]-MTX concentrations; for IC20 at 10 min: human; for Effect on transport mediated by MRP4 / Decrease of MRP4-mediated transport compared to control: [3H]-MTX uptake; for Effect on transport mediated by MRP4: result in words; for Decrease of MRP4-mediated transport compared to control: toxin 1 mM
Procedure: Human embryonic kidney (HEK293; purchased at American Type Culture Collection, Manassas, VA) cells were cultured in Dulbecco's modified Eagle's medium (Invitrogen life sciences, Breda, the Netherlands) containing 10% (v/v) fetal calf serum (MP Biomedicals, Uden, the Netherlands) at 37°C in a 5% (v/v) CO2 atmosphere. To functionally overexpress MRP4 and BCRP, HEK293 cells were transduced with baculoviruses of human MRP4, BCRP or enhanced yellow fluorescent protein (EYFP), generated via the Bac-to-Bac system (Invitrogen) as previously described. To transduce HEK293 cells, they were cultured in 500 cm^2 flasks until 70% confluence. Subsequently, medium was removed and 10 ml of virus and 25 ml of medium were added and incubated for 30 min at 37°C. Next, 50 ml of medium was added and after 2 h of transduction 5 mM sodium butyrate was added.
Three days after transduction, cells were harvested and pelleted by centrifugation (30 min at 4,000 x g). Afterwards, the cells were resuspended in ice-cold hypotonic TS buffer (0.5 mM sodium phosphate, 0.1 mM EDTA, pH 7.0) containing protease inhibitors (100 µM phenylmethylsulfonyl fluoride, 5 µg/ml aprotinin, 5 µg/ml leupeptin, 1 µg/ml pepstatin and 1 µg/ml E-64) and shaken for 30 min at 4°C. Cells were then centrifuged at 100,000 x g for 30 min at 4°C. […] Afterwards, supernatant was centrifuged at 100,000 x g for 1 h at 4°C. […] The protein content of samples was determined using the Bio-Rad protein assay (Veenendaal, the Netherlands), according to manufacturers recommendations. Vesicles were frozen in liquid nitrogen and stored at −80°C until use. The orientation of the membrane vesicles was not determined, since ATP-dependent uptake occurs only in inside-out vesicles.
A rapid filtration technique was used to study the uptake of [^3H]-MTX and [^3H]-E1S into MRP4 or BCRP membrane vesicles, as previously described. In short, 25 µl of TS buffer containing 4 mM ATP, 10 mM MgCl2 and radiolabeled substrate was added to 5 µl of the membrane vesicles (1.5 mg/ml). The transport assay was performed in the absence or presence of various concentrations of uremic toxins to evaluate the inhibitory effects of these compounds on MRP4-mediated [^3H]-MTX uptake and BCRP-mediated [^3H]-E1S uptake. […] Uptake was stopped by placing the samples on ice and the addition of 150 µl ice cold TS buffer. Subsequently, the samples were transferred to a 96 well filter plate (Millipore, Etten-leur, the Netherlands) pre-incubated with TS buffer and filtered using a Multiscreen HTS-Vacuum Manifold filtration device (Millipore). Afterwards, 2 ml of scintillation liquid was added to each filter and radioactivity was determined using liquid scintillation counting. As negative controls ATP was substituted for AMP and EYFP-membrane vesicles were used. Each experiment was performed in triplicates.
Differences between groups were considered to be statistically significant when p<0.05. The mean IC50 and IC20 values were calculated from the inhibition curves used for the Dixon analysis and to determine the inhibition constant (Ki) from the Dixon plots. Transport inhibition studies were performed in triplicate and repeated at least three times.

[1] = IC50, [3H]-MTX uptake into MRP4 membrane vesicles, 10 min, 37°C, mean ± SEM of three experiments
[2] = membrane vesicles from HEK293 cells overexpressing MRP4, pH 7, probe [3H]-methotrexate ([3H]-MTX)
[3] = IC50 (concentration inhibiting 50% of transport by MRP4), MRP4-mediated [3H]-MTX uptake

SMILES	Ki	Mode of inhibition of MRP4-mediated transport	IC50 [1]	IC20 at 10 min [2]	Effect on transport mediated by MRP4	Decrease of MRP4-mediated transport compared to control	further results
O=C(O)Cc1c[nH]c2ccccc12 [indole-3-acetic acid]	2 ± 0.07 mM	non-competitive	1.795 ± 0.008 mM	570 ± 30 µM			
Cc1ccc(S(=O)(=O)O)cc1 [p-toluenesulfonic acid, reference compound]					did not alter transport	≤ 10%	
Cc1ccc(O)cc1 [p-cresol]					did not alter transport	≤ 10%	
NCCCCN [putrescine]					did not alter transport	≤ 10%	
O=C(O)Cc1ccccc1 [phenylacetic acid]			7.1 ± 1.6 mM				IC50 [3]: 7 mM; IC20 at 10 min (pH 7): 1600 ± 170 µM
O=S(=O)(O)Oc1c[nH]c2ccccc12 [indoxyl sulfate]	1 ± 0.09 mM	non-competitive		530 ± 70 µM			IC50: 1.75 ± 0.11 mM
O=C(O)c1cc(=O)c2ccccc2[nH]1 [kynurenic acid]	0.025 ± 0.002 mM			1.5 ± 0.3 µM			IC50: 0.008 ± 0.001 mM
O=C(O)CNC(=O)c1ccccc1 [hippuric acid]	2.5 ± 0.05 mM	non-competitive	0.99 ± 0.18 mM	350 ± 20 µM			IC50 [3]: 2.5 mM
O=C(O)c1cccnc1C(=O)O [quinolinic acid]					did not alter transport	≤ 10%	
O=C(O)C(=O)O [oxalate]					did not alter transport	≤ 10%	
